From patent publication US12037415B2, “Peptide and pharmaceutical composition for treating an eye disease comprising the same as an active pharmaceutical ingredient” (YuYu Pharma, Inc., priority 2017, dated 2024)
Starred links: 1 amine or outer side, 2 acyl side, 3 side chain; linkers in the order of their positions; H or OH if unused. Non-standard residues stand in square brackets, D forms with d. Residues, ends and D or L forms follow the SMILES beside them. No end group written: not given here. ξ: configuration not given here. cisHyp = O=C(O)[C@@H]1C[C@H](O)CN1; X1 = O=C([C@H](CCCCO)N[*:1])[*:2]; Hyp = O=C(O)[C@@H]1C[C@@H](O)CN1; Ile(3ξ) = CCC(C)[C@H](N)C(=O)O; Sar = CNCC(=O)O

Legend:
[1] = system: rats with dry eye syndrome (extraorbital lacrimal gland excision, ELGE); assay: Amount of tear secretion (Schirmer test, cobalt chloride paper) in rats with ELGE-induced dry eye syndrome; assay type: in vivo, rat; conditions: for Amount of tear secretion as compared with the ELGE control group: 0.3% solution (DS 3%), administration for 14 days
Source text: (§1) In order to evaluate the eye protection effect on dry eye syndrome by YDE-001 to YDE-028 prepared in Working Example 1, a total of 320 Sprague-Dawley-type male rats (OrientBio, Seungnam, Korea) were adapted for 7 days. Thereafter, dry eye syndrome was induced in 264 test rats through extraorbital lacrimal gland excision (hereinafter, ELGE). 8 test rats without the eye abnormality were subjected to a sham operation as a control group.
(§2) The rats were systemically anesthetized by inhaling a mixed gas of 2% to 3% of isoflurane (Hana Pharm. Co., Hwasung, Korea), 70% of N2O, and 28.6% of O2 using a rodent anesthesia machine (Surgivet, Waukesha, Wis., USA) and a ventilator (Model 687, Harvard Apparatus, Cambridge, UK). Thereafter, the extraorbital lacrimal gland located in the subdermal area above the masseter muscle and under the optic nerve was excised through a transverse incision in a size of 10 mm on the anterior part of the left ear tragus. The skin was sutured by a general method. […] After 6 days following the ELGE operation, confirmation was performed through the Schirmer test by measuring the amount of tear secretion whether dry eye syndrome had been induced. Meanwhile, each rat of the control group with the sham operation was checked for the presence and location of the extraorbital lacrimal gland through a skin incision, and the skin was then sutured without the excision thereof (FIG. 134).
(§3) In addition, in order to evaluate the eye protection effect on dry eye syndrome by YDE-029 to YDE-043 prepared in Working Example 1, a total of 200 Sprague-Dawley-type male rats (OrientBio, Seungnam, Korea) were adapted for 7 days. Dry eye syndrome was induced in 165 test rats through the ELGE. 8 test rats without the eye abnormality were subjected to the sham operation as a control group. The ELGE was carried out as described above.
(§4) For YDE-001 to YDE-028, YY-102 and the 28 YDE-series were each dissolved in physiological saline at a concentration of 3 mg/ml and administered at a dose of 5 μl/eye at 9:30 am and 3:30 pm daily for 14 days after 7 days from the ELGE operation for a total of 28 times. The DS solution was dissolved in physiological saline at a concentration of 30 mg/ml and administered at a dose of 5 μl/eye twice a day for 14 days after 7 days from the ELGE operation for a total of 28 times. For the sham control and the ELGE control groups, the same stimulation as the administration was applied. In order to prevent excessive eye dryness, the same volume of physiological saline was applied in the same manner in place of the test substances.
as §4, with “Further, For YDE-029” for “For YDE-001”, “Further, For YDE-029 to YDE-043,” for “For YDE-001 to YDE-028,”, “YDE-029 to YDE-043, YY-102 and” for “YDE-001 to YDE-028, YY-102 and”, “and the 15 YDE-series were” for “and the 28 YDE-series were”, “the test substances (FIG. 137).” for “the test substances.”
After 6 days from the ELGE surgery, the changes in the amount of tear secretion were measured at day 7 and day 14 after the administration of YDE-001 to YDE-043. The amount of tear secretion was measured by the […] travel distance of tears absorbed by cobalt chloride paper in a size of 1×15 mm (Toyo Roshi Kaisha, Japan).
The cobalt chloride paper was placed in the lateral canthus of a rat for 60 seconds to absorb tears (FIG. 139). The length of the area absorbed from the corner of the cobalt chloride paper was measured with an electronic digital caliper (Mytutoyo, Tokyo, Japan) (FIG. 138).

[2] = system: cornea of rats with dry eye syndrome (ELGE); assay: Corneal permeability of fluorescent dye (corneal damage) in rats with ELGE-induced dry eye syndrome; assay type: in vivo, rat; conditions: 0.3% solution, day 14 after the administration
Source text: as §1, §2, §3, §4
as §4, with “Further, For YDE-029” for “For YDE-001”, “Further, For YDE-029 to YDE-043,” for “For YDE-001 to YDE-028,”, “YDE-029 to YDE-043, YY-102 and” for “YDE-001 to YDE-028, YY-102 and”, “and the 15 YDE-series were” for “and the 28 YDE-series were”, “the test substances (FIG. 137).” for “the test substances.”
After YDE-001 to YDE-028 were each administered to the eyes […], the changes in the corneal permeability were checked.
In order to measure the corneal permeability, Zolethyl 50™ (Virbac Lab., Carros, France), an animal anesthetic, was intraperitoneally injected at a dose of 25 mg/kg. Thereafter, saline containing a 1% (v/v) fluorescent solution (fluorescein sodium salt, Tokyo Kasei Kogyo Co., Tokyo, Japan) was applied to the eyes at a dose of 5 μl/eye. The eyes thus treated were closed and fixed with a tape. After 1 hour, the remaining fluorescent solution was removed using a cotton swab (FIG. 142). […]

[3] = Stability in aqueous solution, amount of related substances under long-term storage conditions; assay type: physicochemical; conditions: glass vial, 25° C., 75% RH
Procedure: In order to confirm the stability of each test substance in an aqueous solution, […] of each sample was dissolved in 1 ml of water to a concentration of 1 mg/ml, which was then charged to a glass vial, plugged with a rubber cap, sealed with an aluminum cap, and stored under long-term storage conditions (25° C., 75% RH). The stability of the test substance was evaluated by measuring the amount of related substances at the time of one week, two weeks, four weeks, eight weeks, and twelve weeks under the long-term storage conditions.

[4] = study of YDE-001 to YDE-028 (Table 16)
[5] = study of YDE-029 to YDE-043 (Table 17)

Amount of related substances (%; after 12 weeks) [3]	Compound	Amount of tear secretion as compared with the ELGE control group ([1]; study of YDE-001 to YDE-028)	Permeability of fluorescent dye (%) [2, 4]	Tear Volumes, Day 7 ([1]; ELGE rats, 0.3% solution, 5 μl/eye twice daily, day 7 of administration, study of YDE-001 to YDE-028 (Table 14))	Tear Volumes, Day 14 ([1]; ELGE rats, 0.3% solution, 5 μl/eye twice daily, day 14 of administration, study of YDE-001 to YDE-028 (Table 14))	Amount of tear secretion as compared with the ELGE control group ([1]; study of YDE-029 to YDE-043)	Permeability of fluorescent dye (%) [2, 5]
13.43%	CC(C)C[C@H](NC(=O)[C@H](Cc1ccccc1)NC(=O)[C@H](CC(=O)O)NC(=O)[C@H](CCC(N)=O)NC(=O)CNC(=O)[C@@H]1C[C@@H](O)CN1)C(=O)N[C@@H](C)C(=O)NCC(=O)N1CCC[C@H]1C(=O)N[C@@H](CCCCN)C(=O)O [YDE-019, HyP-Gly-Gln-Asp-Phe-Leu-Ala-Gly-Pro-Lys] (H-[Hyp]GQDFLAGPK-OH)	did not show any significant changes	40.39 ± 12.57%				
11.88%	CC(C)C[C@H](NC(=O)[C@H](CC(C)C)NC(=O)[C@H](CC(=O)O)NC(=O)[C@H](CCC(N)=O)NC(=O)CNC(=O)[C@@H]1C[C@@H](O)CN1)C(=O)N[C@@H](C)C(=O)NCC(=O)N1CCC[C@H]1C(=O)N[C@@H](CCCCN)C(=O)O [YDE-017, HyP-Gly-Gln-Asp-Leu-Leu-Ala-Gly-Pro-Lys] (H-[Hyp]GQDLLAGPK-OH)	did not show any significant changes	39.76 ± 7.42%				
1.15%	CNC(=O)C[C@H](NC(=O)[C@H](CCC(N)=O)NC(=O)CNC(=O)[C@@H]1C[C@@H](O)CN1)C(=O)NCC(=O)N[C@@H](CC(C)C)C(=O)N[C@@H](C)C(=O)NCC(=O)N1CCC[C@H]1C(=O)N[C@@H](CCCCN)C(=O)O [YDE-028, HyP-Gly-Gln-Asn(Me)-Gly-Leu-Ala-Gly-Pro-Lys] (H-[Hyp]GQD(NHMe)GLAGPK-OH)	did not show any significant changes	41.17 ± 10.25%				
12.74%	COC(=O)C[C@H](NC(=O)[C@H](CCC(N)=O)NC(=O)CNC(=O)[C@@H]1C[C@@H](O)CN1)C(=O)NCC(=O)N[C@@H](CC(C)C)C(=O)N[C@@H](C)C(=O)NCC(=O)N1CCC[C@H]1C(=O)N[C@@H](CCCCN)C(=O)O [YDE-027, HyP-Gly-Gln-Asp(Me)-Gly-Leu-Ala-Gly-Pro-Lys] (H-[Hyp]GQD(OMe)GLAGPK-OH)	did not show any significant changes	50.24 ± 11.94%				
4.71%	CC(C)C[C@H](NC(=O)CNC(=O)[C@@H](NC(=O)[C@H](CCC(N)=O)NC(=O)CNC(=O)[C@@H]1C[C@@H](O)CN1)C(C)C)C(=O)N[C@@H](C)C(=O)NCC(=O)N1CCC[C@H]1C(=O)N[C@@H](CCCCN)C(=O)O [YDE-009, HyP-Gly-Gln-Val-Gly-Leu-Ala-Gly-Pro-Lys] (H-[Hyp]GQVGLAGPK-OH)	did not show any significant changes	41.50 ± 7.86%				
21.33%	CC(C)C[C@H](NC(=O)[C@H](Cc1c[nH]c2ccccc12)NC(=O)[C@H](CC(=O)O)NC(=O)[C@H](CCC(N)=O)NC(=O)CNC(=O)[C@@H]1C[C@@H](O)CN1)C(=O)N[C@@H](C)C(=O)NCC(=O)N1CCC[C@H]1C(=O)N[C@@H](CCCCN)C(=O)O [YDE-021, HyP-Gly-Gln-Asp-Trp-Leu-Ala-Gly-Pro-Lys] (H-[Hyp]GQDWLAGPK-OH)	did not show any significant changes	37.00 ± 10.49%				
4.39%	CCC(C)[C@H](NC(=O)[C@H](CCC(N)=O)NC(=O)CNC(=O)[C@@H]1C[C@@H](O)CN1)C(=O)NCC(=O)N[C@@H](CC(C)C)C(=O)N[C@@H](C)C(=O)NCC(=O)N1CCC[C@H]1C(=O)N[C@@H](CCCCN)C(=O)O (stereo partly drawn) [YDE-010, HyP-Gly-Gln-Ile-Gly-Leu-Ala-Gly-Pro-Lys] (H-[Hyp]GQ[Ile(3ξ)]GLAGPK-OH)	did not show any significant changes	49.29 ± 12.06%				
21.54%	CC(C)C[C@H](NC(=O)[C@H](Cc1ccc(O)cc1)NC(=O)[C@H](CC(=O)O)NC(=O)[C@H](CCC(N)=O)NC(=O)CNC(=O)[C@@H]1C[C@@H](O)CN1)C(=O)N[C@@H](C)C(=O)NCC(=O)N1CCC[C@H]1C(=O)N[C@@H](CCCCN)C(=O)O [YDE-020, HyP-Gly-Gln-Asp-Tyr-Leu-Ala-Gly-Pro-Lys] (H-[Hyp]GQDYLAGPK-OH)	did not show any significant changes	47.84 ± 13.47%				
	CC(C)C[C@H](NC(=O)CNC(=O)[C@H](CC(C)C)NC(=O)[C@H](CCC(N)=O)NC(=O)CNC(=O)[C@@H]1C[C@@H](O)CN1)C(=O)N[C@@H](C)C(=O)NCC(=O)N1CCC[C@H]1C(=O)N[C@@H](CCCCO)C(=O)O [YDE-033, HyP-Gly-Gln-Leu-Gly-Leu-Ala-Gly-Pro-Nle(6-OH)] (H-[Hyp]GQLGLAGP[X1]-OH)					did not show any significant changes	60.55 ± 21.22%
19.23%	CC(C)C[C@H](NC(=O)[C@H](Cc1c[nH]cn1)NC(=O)[C@H](CC(=O)O)NC(=O)[C@H](CCC(N)=O)NC(=O)CNC(=O)[C@@H]1C[C@@H](O)CN1)C(=O)N[C@@H](C)C(=O)NCC(=O)N1CCC[C@H]1C(=O)N[C@@H](CCCCN)C(=O)O [YDE-022, HyP-Gly-Gln-Asp-His-Leu-Ala-Gly-Pro-Lys] (H-[Hyp]GQDHLAGPK-OH)	did not show any significant changes	47.82 ± 10.01%				
	CC(C)C[C@H](NC(=O)CNC(=O)[C@H](CC(C)C)NC(=O)[C@H](CCC(N)=O)NC(=O)CNC(=O)[C@@H]1C[C@H](O)CN1)C(=O)N[C@@H](C)C(=O)NCC(=O)N1CCC[C@H]1C(=O)N[C@@H](CCCCN)C(=O)O [YDE-034, Hyp(2S, 4S)-Gly-Gln-Leu-Gly-Leu-Ala-Gly-Pro-Lys] (H-[cisHyp]GQLGLAGPK-OH)					did not show any significant changes	32.17 ± 12.94%

Compound	Amount of related substances (%; after 12 weeks) [3]	Amount of tear secretion as compared with the ELGE control group ([1]; study of YDE-001 to YDE-028)	Permeability of fluorescent dye (%) [2, 4]	Tear Volumes, Day 7 ([1]; ELGE rats, 0.3% solution, 5 μl/eye twice daily, day 7 of administration, study of YDE-001 to YDE-028 (Table 14))	Tear Volumes, Day 14 ([1]; ELGE rats, 0.3% solution, 5 μl/eye twice daily, day 14 of administration, study of YDE-001 to YDE-028 (Table 14))	Amount of tear secretion as compared with the ELGE control group ([1]; study of YDE-029 to YDE-043)	Permeability of fluorescent dye (%) [2, 5]
YDE-025: peptide of SEQ ID NO: 31, the compound represented by Formula 10 ([Hyp]GQD[Sar]LAGPK; ends and bridges not checked)	5.17%	did not show any significant changes	47.10 ± 11.45%	3.21 ± 0.72 mm^3	4.72 ± 2.19 mm^3		
